{"source": "paper PMC12785803", "about": "“Novel ACE-Inhibitory Peptides from Royal Jelly Proteins: Comprehensive Screening, Mechanistic Insights, and Endothelial Protection” (Foods, 2025)", "key": {"EA.hy926 cells [1]": {"system": "EA.hy926 cells", "test": "GSH-Px activity in H2O2-damaged cells", "assay_type": "cell-based", "conditions": "captopril; vs H2O2 group", "description": "(§1) The activities of SOD and GSH-Px were assessed as follows. EA.hy926 cells were seeded in 6-well plates at 4 × 10^5 cells per well and cultured overnight. After attachment, the cells were serum-starved in high-glucose DMEM containing 1% FBS for 12 h, and then treated for 24 h with peptide solutions at the indicated concentrations or with captopril. […] After treatment, the cells were washed with ice-cold PBS, lysed on ice, and centrifuged to collect the supernatants. SOD and GSH-Px activities were measured spectrophotometrically at 550 nm and 412 nm, respectively, using a microplate reader. Enzyme activities were calculated, normalized to total protein content, and expressed as U/mg protein."}, "EA.hy926 cells [2]": {"system": "EA.hy926 cells", "test": "NO level in Ang II-stimulated cells (Griess)", "assay_type": "cell-based", "conditions": "captopril after Ang II; control 109.8, Ang II 58.95", "description": "(§2) To evaluate the effect of the peptide on endothelial function, NO and ET-1 levels were measured in this study. Briefly, EA.hy926 cells were seeded in 6-well plates at a density of 4 × 10^5 cells/well and allowed to adhere overnight. After removing the medium, cells were incubated with 1 μmol/L Ang II for 12 h to induce endothelial dysfunction. Subsequently, the peptide solutions at different concentrations (0.1, 0.2, and 0.4 mg/mL) or the captopril solutions were added, and the cells were incubated for an additional 24 h. For the blank control group, the cells received no treatment. After incubation, the culture supernatants were collected and centrifuged to remove debris. Both NO and ET-1 contents in the supernatants were quantified using commercial kits according to the manufacturer’s protocols. NO content was determined using the Griess reaction (OD = 550 nm), and ET-1 levels were measured via enzyme-linked immunosorbent assay (ELISA) (OD = 450 nm). Absorbance values were recorded at the corresponding wavelengths using a microplate reader (Spark 10M, Tecan, Männedorf, Switzerland)."}, "EA.hy926 cells [3]": {"system": "EA.hy926 cells", "test": "ET-1 level in Ang II-stimulated cells (ELISA)", "assay_type": "cell-based", "conditions": "captopril after Ang II; control 13.82, Ang II 15.65", "description": "as §2"}, "EA.hy926 cells [4]": {"system": "EA.hy926 cells", "test": "Wound healing assay (Ang II-induced migration)", "assay_type": "cell-based", "conditions": "captopril 0.2 mg/mL, Ang II-induced", "description": "The effect of peptides on endothelial cell migration was evaluated using a wound healing assay. Briefly, EA.hy926 cells were seeded into 6-well plates and cultured at 37 °C in a humidified atmosphere containing 5% CO2. When the cells reached full confluence, they were treated with 1 μmol/L Ang II for 12 h to induce endothelial dysfunction. Subsequently, a straight scratch was created across the cell monolayer using a sterile 200 μL pipette tip. Detached cells were gently removed by rinsing with PBS, leaving a clear cell-free wound area. To minimize proliferation interference, cells were then incubated in high-glucose DMEM containing 1% FBS, supplemented with different concentrations of the peptides or captopril. Images of the same wound area were captured at 0 h, 6 h, and 24 h using a fluorescence microscope (Axio Observer, Zeiss, Jena, Germany), and the wound area was quantified using ImageJ software (version 1.54g)."}, "EA.hy926 cells [5]": {"system": "EA.hy926 cells", "test": "SOD activity in H2O2-damaged cells", "assay_type": "cell-based", "conditions": "captopril; vs H2O2 group", "description": "as §1"}, "EA.hy926 cells [6]": {"system": "EA.hy926 cells", "test": "MTT cytotoxicity assay", "conditions": "EA.hy926, 24 h, 0.0625 to 1 mg/mL; ISO 10993-5 limit: viability above 70%", "quoted_text": "Cell culture. EA.hy926 endothelial cells were cultured in high-glucose Dulbecco’s Modified Eagle Medium (DMEM) supplemented with 10% fetal bovine serum (FBS) and 1% penicillin–streptomycin. Cells were maintained in a humidified incubator at 37 °C with 5% CO2. When cell confluence reached approximately 70–80%, subculturing was performed for subsequent experiments.\nCytotoxicity assay. The cytotoxicity of the peptides was evaluated using the MTT assay [29]. […] After incubation at 37 °C for 4 h, the supernatant was carefully removed, and 150 μL of DMSO was added to dissolve the formazan crystals. The plate was shaken for 10 min, and the absorbance was measured at 490 nm using a microplate reader."}, "endothelial cells [7]": {"system": "endothelial cells", "design": "method as in PMID 37501259", "conditions": "Ang II-treated endothelial cells, cited from earlier work"}, "endothelial cells [8]": {"system": "endothelial cells", "conditions": "48 h of treatment; 129% in the Ang II group; cited from earlier work", "description": "All three concentrations produced highly similar su ..."}}, "note": "No end group written: not given here."}
{"compound": "C[C@H](CS)C(=O)N1CCC[C@H]1C(=O)O", "note": "[captopril]", "values": [{"measurement": "GSH-Px improvement", "setting": "EA.hy926 cells [1]", "value": 38.8, "unit": "%"}, {"measurement": "NO level", "setting": "EA.hy926 cells [2]", "value": "97.86 ± 4.47", "unit": "μmol/g prot"}, {"measurement": "ET-1 content", "setting": "EA.hy926 cells [3]", "value": "12.70 ± 0.48", "unit": "pg/mg prot"}, {"measurement": "Migration rate", "setting": "EA.hy926 cells [4]; 6 h, Ang II alone 42.44", "value": "25.77 ± 2.49", "unit": "%"}, {"measurement": "Migration rate", "setting": "EA.hy926 cells [4]; 24 h, Ang II alone 89.68", "value": "57.52 ± 1.92", "unit": "%"}, {"measurement": "SOD improvement", "setting": "EA.hy926 cells [5]", "value": 70.9, "unit": "%"}]}
{"compound": "PYPDWSFAK [PYPDWSFAK]", "values": [{"measurement": "Cytotoxicity", "setting": "EA.hy926 cells [6]", "value": "non-cytotoxic"}]}
{"compound": "SPIH [soybean protein-derived peptide]", "values": [{"measurement": "NO content", "setting": "endothelial cells [7]; 31.4 ± 0.7 before", "value": "43.7 ± 0.1", "unit": "µmol/L"}, {"measurement": "NO increase", "setting": "endothelial cells [7]", "value": 39.3, "unit": "%"}, {"measurement": "Endothelial wound healing", "setting": "endothelial cells [8]", "value": 92, "unit": "%"}]}
